Measurements published in patent publication US12679835B2, “Benzothiazinone derivative substituted with trifluoromethyl at 6-position, and preparation method therefor and use thereof” (SOOCHOW UNIVERSITY, priority 2021, dated 2026).
In brackets after ≈: the same amount, converted by molar mass.

Tests used:
[1] = tested on: Mycobacterium tuberculosis (H37 Rv, standard tuberculosis strain); experiment: Anti-Mycobacterium tuberculosis activity, microwell Alamar Blue fluorometric method (MIC); format: cell-based; conditions: Mycobacterium tuberculosis H37Rv, 37° C., 8 days + 2 days, read-out: MIC (minimal inhibitory concentration)
Tuberculosis = conditions: background statement, existing clinical first-line drug; cited from earlier work
in vitro = conditions: human, microsomes, pH 7.4
physchem = conditions: pH 7.4, aqueous buffer, kinetic from dmso stock

NNC(=O)c1ccncc1 [isoniazid INH, isoniazid]
MIC [1]: 0.028 µg/mL | MIC (Tuberculosis): 0.5 µM (≈ 0.0686 µg/mL)

CN(Cc1nnc(-c2ccc(F)cc2)s1)c1nc(=O)c2cc(S(C)(=O)=O)cc([N+](=O)[O-])c2s1 [Control 4]
half-life at 1 μM (in vitro): 13.2 min | MIC [1]: 0.024 µg/mL

CN(Cc1cn(-c2ccccc2)nn1)c1nc(=O)c2cc(S(C)(=O)=O)cc([N+](=O)[O-])c2s1 [Control 2]
half-life at 1 μM (in vitro): 53.7 min | MIC [1]: 0.022 µg/mL

CN(Cc1nnc(-c2ccccc2)o1)c1nc(=O)c2cc(C(F)(F)F)cc([N+](=O)[O-])c2s1 [Example 1, 2-(methyl ((5-phenyl-1,3,4-oxadiazol-2-yl)methyl)amino)-8-nitro-6-(trifluoromethyl)-4H-benzo [e] [1,3] Thiazin-4-ketone]
half-life at 1 μM (in vitro): 68.2 min | solubility at 4 h (physchem): 0.15 µg/mL (≈ 0.324 µM) | MIC [1]: 0.003 µg/mL

CN(Cc1coc(-c2ccccc2)n1)c1nc(=O)c2cc(C(F)(F)F)cc([N+](=O)[O-])c2s1 [Example 5, 2-(methyl((2-phenyloxazole-4-yl)methyl)amino)-8-nitro-6-(trifluoromethyl)-4H-benzo [e] [1,3] Thiazin-4-ketone]
half-life at 1 μM (in vitro): 33.6 min | solubility at 4 h (physchem): 0.11 µg/mL (≈ 0.238 µM) | MIC [1]: 0.003 µg/mL

CN(Cc1cn(-c2ccc(F)cc2)nn1)c1nc(=O)c2cc(S(C)(=O)=O)cc([N+](=O)[O-])c2s1 [Control 3]
half-life at 1 μM (in vitro): 27.6 min | MIC [1]: 0.015 µg/mL

CN(Cc1nnc(-c2ccc(F)cc2)s1)c1nc(=O)c2cc(C(F)(F)F)cc([N+](=O)[O-])c2s1 [Example 4]
half-life at 1 μM (in vitro): 34.3 min | MIC [1]: 0.016 µg/mL

CN(Cc1cn(-c2ccccc2)nn1)c1nc(=O)c2cc(C(F)(F)F)cc([N+](=O)[O-])c2s1 [Example 2, 2-(1-phenyl ((1-1H-1,2,3-triazole-4-yl)methyl) (methyl)amino)-8-nitro-6-(trifluoromethyl)-4H-benzo [e] [1,3] Thiazin-4-ketone]
half-life at 1 μM (in vitro): 100 min | solubility at 4 h (physchem): 0.13 µg/mL (≈ 0.281 µM) | MIC [1]: 0.004 µg/mL

CN(Cc1cn(-c2ccc(F)cc2)nn1)c1nc(=O)c2cc(C(F)(F)F)cc([N+](=O)[O-])c2s1 [Example 3]
half-life at 1 μM (in vitro): 116 min | solubility at 4 h (physchem): 0.12 µg/mL (≈ 0.25 µM) | MIC [1]: 0.004 µg/mL

CN(Cc1nnc(-c2ccccc2)o1)c1nc(=O)c2cc(S(C)(=O)=O)cc([N+](=O)[O-])c2s1 [Control 1]
half-life at 1 μM (in vitro): 45.9 min | MIC [1]: 0.014 µg/mL

O=c1nc(N2CCN(CC3CCCCC3)CC2)sc2c([N+](=O)[O-])cc(C(F)(F)F)cc12 [PBTZ169]
half-life at 1 μM (in vitro): 38 min | solubility at 4 h (physchem): < 0.01 µg/mL | MIC [1]: 0.00183 µg/mL

CN(Cc1coc(-c2ccccc2)n1)c1nc(=O)c2cc(S(C)(=O)=O)cc([N+](=O)[O-])c2s1 [Control 5]
half-life at 1 μM (in vitro): 21 min | MIC [1]: 0.015 µg/mL
